Test results as given in patent US6759236B1, “Methods to enhance and confine expression of genes” (Research Development Foundation, priority 1998, dated 2004).

How the values were obtained:
[1] = cited from earlier work
[2] = test system: H358 lung carcinoma cell line; assay: Heat inducible, tetracycline feed-forward amplification of p53 expression (p53 immunostaining); format: cell-based; settings: 0.1 μg/ml added 6 hours after heating (45° C., 20 min); reached in 10 hours; cells cotransfected with ptet-splice p53 wt and HSP-tetp-TET-ON
Procedure: Six hours after heat shock, transfected cells were treated with different doses of doxycycline. At various time points after the addition of doxycycline, the cells were stained with a p53 antibody. For each point, the digital images of fifty immunostained cells were captured using a Nikon microscope. […] The plasmid “HSP-tetp-TET-ON” was constructed by replacing the CMV promoter in ptet-on (Clontech) with 300 bp of the human heat shock protein promoter and the tetp promoter. H358, a non-small cell lung carcinoma cell line with a homozygous deletion of p53, was grown in RPMI+10% fetal calf serum. 10^7 exponentially growing cells were cotransfected with 50 μg of “ptet-splice p53 wt” and 10 μg of “HSP-tetp-TET-ON” by electroporation using a BRL cell-Porator at 1180 μF and 240 V in 0.8 ml RPMI+6 mM glucose. Transfected cells were plated out at 25% confluence for 36 hours and then half of them were heat-shocked at 45° C. for twenty minutes. Six hours after heat shock, cells were treated with different doses of doxycycline. […] The amount of protein expressed in each cell is proportional to the intensity of staining which was expressed as I=1/T, where T is a measure of the transmitted light/unit area.

SMILES | in vivo half-life ([1]; in vivo) | amplification of p53 [2] | level at the end of 24 hours ([1]; end of 24 hours) | time at which peak plasma concentration is reached ([1]; humans, single oral dose) | fraction removed via the kidney ([1]; humans) | fraction never absorbed and excreted in the active form ([1]; in vivo)
C[C@H]1c2cccc(O)c2C(=O)C2=C(O)[C@]3(O)C(=O)C(C(N)=O)=C(O)[C@@H](N(C)C)[C@@H]3[C@@H](O)[C@@H]21 [doxycycline] | 18 h | more than 12 fold | – | – | – | –
CN(C)[C@@H]1C(O)=C(C(N)=O)C(=O)[C@@]2(O)C(O)=C3C(=O)c4c(O)cccc4[C@@](C)(O)[C@H]3[C@H](O)[C@@H]12 [oxytetracycline] | 9 h | – | < 25 % of input | 2 to 4 h | 10-35% | 10-30%
